Source: patent US5972939A, “Cyclopentene derivatives useful as antagonists of the motilin receptor” (Ortho-McNeil Pharmaceutical, Inc., priority 1998, dated 1999)
Read-outs that look alike come from different tables or passages of the source. Blank lines part the entries; values can stand above or below the compound they belong to.

Assays:
[1] = molecular target: T1, motilin receptors located on the colon of mature rabbits (Oryctolagus cuniculus, UniProt G1T803); assay: competition with radiolabeled (125I) porcine motilin for the motilin receptors of rabbit colon; type: binding; conditions: for IC50: rabbit colon, 125I motilin
T1 construct: The colon from mature New Zealand rabbits was removed, dissected free from the mucosa and serosa layers, and diced into small pieces; from tissue; host or cells: colon smooth muscle of mature New Zealand rabbits, crude membrane homogenate
Description: The compounds of the invention were tested for their ability to compete with radiolabeled motilin (porcine) for the motilin receptors located on the colon of mature rabbits. The colon from mature New Zealand rabbits was removed, dissected free from the mucosa and serosa layers, and diced into small pieces. […] The homogenate was centrifuged at 1000×g for 15 min. and the supernatant discarded. The pellet was washed twice before being suspended in homogenizing buffer. This crude homogenate is then passed first through a 19 gauge needle then a 23 gauge needle to further suspend the material and stored as -80° C. […] After 30 min, at 30° C., the material was cooled on ice and centrifuged at 13,000×g for 1 minute. The pellet was washed with 1 mL 0.9% saline and centrifuged at 13,000×g for 15 seconds. The pellet was washed again with cold saline and the supernatant was removed. The pellet was counted in the gamma counter to determine the percentage of […] motilin and thereby the percent inhibition of the test compound. IC50s were determined for some compounds by standard techniques.

[2] = tested on: rabbit duodenum smooth muscle (motilin and erythromycin induced contractions); assay: inhibition of motilin (porcine) induced contractions in rabbit duodenum smooth muscle; type: cell-based; conditions: for IC50: rabbit duodenum strips, porcine motilin; for inhibition at 2 µM: @ 2 μM (2.0 μM)
Description: Select compounds of the invention were evaluated for their ability to inhibit motilin and erythromycin induced contractions in the rabbit duodenum smooth muscle. Rabbits were fasted 24-48 h and euthanized. The venral midline incision was made approximately 7.5 cm above the umbilicus upto the xyphoid process, exposing the upper peritoneal cavity. The first 8 cm. of the duodenum starting at the pyloric valve was quickly removed and placed in Krebs solution containing NaCl, ([…]), KCl (4.7 mM), MgSO4 *7 H2 O (1.2 mM), CaCl2 *2 H2 O (2.4 mM), KH2 PO4 (1 mM), D-glucose (10 mM), and NaHCO3 (24 mM). The lumen was flushed with Krebs and excess tissue was removed. The tissue was cut lengthwise, splayed open with the longitudinal muscle layer facing up, and the longitudinal muscle layer was released away from the circular muscle and cut into 3×30 mm strips. A pre-tied 4-0 silk ligature with a loop was placed at the middle of the strip and the strip was folded over the loop so the strip was half its original length. The tissues were mounted in a 10 mL tissue bath (Radnotti Glass Technology, Inc., Monrovia, Calif.) containing Krebs solution gassed with 95% O2 5% CO2 at 37° C. […] The tissues were allowed to equilibrate for 60-90 min with 2-3 wash cycles. The tissues were equilibrated with two initial contractions induced by a concentration of acetylcholine (1×10^-4 M) that produced a maximal contraction (0.1 mM), with the highest taken as 100% maximall contraction of that tissue. Base line and response levels are expressed as grams tension developed and as a percent of the response to acetylcholine. The test compounds were dissolved in DMSO (2 mM/100% DMSO) and applied to the prepared strips 5-15 minutes prior to the addition of porcine motilin. After addition, the tension is constantly monitored over 5 min and the maximum tension is recorded. The percent contraction was measured at four ascending concentrations and where appropriate IC50s were determined.

[3] = Oryctolagus cuniculus, read-out: IC50

T1 sequence (G1T803 1-400): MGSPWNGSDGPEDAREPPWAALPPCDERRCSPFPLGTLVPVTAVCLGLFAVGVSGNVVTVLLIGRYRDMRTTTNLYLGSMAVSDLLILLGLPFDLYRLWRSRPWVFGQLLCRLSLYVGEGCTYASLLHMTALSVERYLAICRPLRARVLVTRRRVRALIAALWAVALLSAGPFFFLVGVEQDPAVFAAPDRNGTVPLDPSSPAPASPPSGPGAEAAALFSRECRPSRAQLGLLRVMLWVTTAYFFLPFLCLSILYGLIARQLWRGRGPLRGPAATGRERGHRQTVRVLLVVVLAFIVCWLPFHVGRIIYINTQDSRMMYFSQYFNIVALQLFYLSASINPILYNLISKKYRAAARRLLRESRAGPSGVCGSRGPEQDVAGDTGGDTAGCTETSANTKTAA

Structure (SMILES): CCN(CC)CCN(CC1=CC(Cc2ccccc2)(NC(=O)C(Cl)(Cl)Cl)CC1)c1cccc(OCCCN2CCCCC2)c1 (stereo not drawn) [Compound 54]
IC50 ([1]; read-out: IC50 (unit inferred)): 900 nM
inhibition at 5 µM ([2]; Oryctolagus cuniculus): 24%

Structure (SMILES): O=C(c1ccc(F)cc1)N(CC1=CC(Cc2ccccc2)(NC(=O)C(Cl)(Cl)Cl)CC1)c1cccc(OCCN2CCOCC2)c1 (stereo not drawn) [Compound 59]
IC50 ([1]; read-out: IC50): 52 nM
inhibition at 3 µM ([2]; Oryctolagus cuniculus, @ 3.0 μM): 54%

Structure (SMILES): O=C(c1ccc(F)c(F)c1)N(CC1=CC(Cc2ccccc2)(NC(=O)C(Cl)(Cl)Cl)CC1)c1cccc(OCCN2CCOCC2)c1 (stereo not drawn) [Compound 62]
IC50 ([1]; read-out: IC50): 50 nM
inhibition at 1 µM ([2]; Oryctolagus cuniculus): 65%

Structure (SMILES): COc1ccc(CC2(NC(=O)C(Cl)(Cl)Cl)C=C(CN(C(=O)c3ccc(F)cc3)c3cccc(OCCN4CCOCC4)c3)CC2)cc1 (stereo not drawn) [Compound 65]
IC50 ([1]; read-out: IC50): 56 nM
inhibition at 1 µM ([2]; Oryctolagus cuniculus): 72%

Structure (SMILES): CCN(CC)CCOc1cccc(N(CCN(CC)CC)CC2=CC(Cc3ccccc3)(NC(=O)C(Cl)(Cl)Cl)CC2)c1 (stereo not drawn) [Compound 51]
inhibition at 5 µM ([2]; Oryctolagus cuniculus): 74%

Structure (SMILES): O=C(NC1(Cc2ccccc2)C=C(CN(CCN2CCOCC2)Cc2cccc(OCCN3CCOCC3)c2)CC1)C(Cl)(Cl)Cl (stereo not drawn) [Compound 57]
IC50 ([1]; read-out: IC50 (unit inferred)): 700 nM
IC50 ([2]; Oryctolagus cuniculus, read-out: IC50 (unit inferred)): 1060 nM

Structure (SMILES): CCN(CC)CCN(CC1=CC(Cc2ccccc2)(NC(=O)C(Cl)(Cl)Cl)CC1)c1cccc(OCCN2CCCC2)c1 (stereo not drawn) [Compound 55]
IC50 ([1]; read-out: IC50 (unit inferred)): 900 nM
inhibition at 2 µM ([2]; Oryctolagus cuniculus): 43%

Structure (SMILES): O=C(Nc1ccccc1)N(CC1=CC(Cc2ccc(F)cc2)(NC(=O)C(Cl)(Cl)Cl)CC1)c1cccc(OCCN2CCOCC2)c1 (stereo not drawn) [Compound 67]
inhibition at 0.25 µM ([1]; @ 0.25 μM): 34%
inhibition at 1 µM ([2]; Oryctolagus cuniculus): 25.7%

Structure (SMILES): O=C(Nc1ccccc1)N(CC1=CC(Cc2ccccc2)(NC(=O)C(Cl)(Cl)Cl)CC1)c1cccc(OCCN2CCOCC2)c1 (stereo not drawn) [Compound 7, 3-Benzyl-3-trichloroacetylamino-1-(N-phenylaminocarbonyl)-N-[(3-(2-morpholinoethoxy)phenyl)amino]methylcyclopentene]
IC50 ([1]; read-out: IC50): 45 nM
IC50 ([2]; read-out: IC50): 287 nM

Structure (SMILES): O=C(c1c(F)c(F)c(F)c(F)c1F)N(CC1=CC(Cc2ccccc2)(NC(=O)C(Cl)(Cl)Cl)CC1)c1cccc(OCCN2CCOCC2)c1 (stereo not drawn) [Compound 100]
IC50 ([1]; read-out: IC50): 1000 nM

Structure (SMILES): COc1ccc(NC(=O)N(CC2=CC(Cc3ccccc3)(NC(=O)C(Cl)(Cl)Cl)CC2)c2cccc(OCCN3CCOCC3)c2)cc1 (stereo not drawn) [Compound 89]
inhibition at 5 µM ([1]; @ 5.0 μM): 26%

Structure (SMILES): COc1ccc(N(CC2=CC(Cc3ccccc3)(NC(=O)C(Cl)(Cl)Cl)CC2)Cc2ccccc2)cc1OCCN1CCOCC1 (stereo not drawn) [Compound 93]
inhibition at 10 µM [1]: 62%

Structure (SMILES): CN(C)c1ccc(C(=O)N(CCc2cccc(OCCN3CCOCC3)c2)CC2=CC(Cc3ccccc3)(NC(=O)C(Cl)(Cl)Cl)CC2)cc1 (stereo not drawn) [Compound 96]
inhibition at 1 µM [1]: 62%

Structure (SMILES): CCN(CC)CCSc1cccc(N(CC2=CC(Cc3ccccc3)(NC(=O)C(Cl)(Cl)Cl)CC2)C(=O)c2ccccc2)c1 (stereo not drawn) [Compound 79]
inhibition at 10 µM [1]: 98%

Structure (SMILES): O=C(Nc1cccc(Br)c1)N(CC1=CC(Cc2ccccc2)(NC(=O)C(Cl)(Cl)Cl)CC1)c1cccc(OCCN2CCOCC2)c1 (stereo not drawn) [Compound 112]
inhibition at 1 µM [1]: 51%

Structure (SMILES): O=C(c1ccccc1)N(CC1=CC(Cc2ccccc2)(NC(=O)C(Cl)(Cl)Cl)CC1)Cc1cccc(OCCN2CCOCC2)c1 (stereo not drawn) [Compound 32]
inhibition at 10 µM [1]: 70%

Structure (SMILES): CCN(CC)CCN(CC1=CC(Cc2ccccc2)(NC(=O)C(Cl)(Cl)Cl)CC1)c1ccccc1O (stereo not drawn) [Compound 73]
inhibition at 10 µM [1]: 84%

Structure (SMILES): O=C(Nc1ccccc1)N(CC1=CC(NC(=O)C(Cl)(Cl)Cl)(c2ccccc2)CC1)c1cccc(OCCN2CCOCC2)c1 (stereo not drawn) [Compound 127]
inhibition at 0.1 µM [1]: 33%

Structure (SMILES): CN(C)CCSc1ccc(N(CC2=CC(Cc3ccccc3)(NC(=O)C(Cl)(Cl)Cl)CC2)C(=O)c2ccccc2)cc1 (stereo not drawn) [Compound 86]
inhibition at 2 µM ([1]; @ 2.0 μM): 49%

Structure (SMILES): O=C(c1cc(C(F)(F)F)cc(C(F)(F)F)c1)N(CC1=CC(Cc2ccccc2)(NC(=O)C(Cl)(Cl)Cl)CC1)c1cccc(OCCN2CCOCC2)c1 (stereo not drawn) [Compound 99]
inhibition at 1 µM [1]: 28%

Structure (SMILES): O=C(NC1(Cc2ccccc2)C=C(CNc2ccc(O)cc2)CC1)C(Cl)(Cl)Cl (stereo not drawn) [Compound 69]
inhibition at 10 µM [1]: 11%

Structure (SMILES): CCN(CC)CCN(CC1=CC(Cc2ccccc2)(NC(=O)C(Cl)(Cl)Cl)CC1)c1ccccc1OCCN1CCOCC1 (stereo not drawn) [Compound 72]
IC50 ([1]; read-out: IC50 (unit inferred)): 900 nM

Now from value to compound, other results behind:

IC50 ([1]; read-out: IC50): 56 nM
Structure (SMILES): COc1ccc(CC2(NC(=O)C(Cl)(Cl)Cl)C=C(CN(C(=O)c3ccccc3)c3cccc(OCCN4CCOCC4)c3)CC2)cc1 (stereo not drawn) [Compound 66]
inhibition at 1 µM ([2]; Oryctolagus cuniculus): 58%

IC50 ([1]; read-out: IC50 (unit inferred)): 300 nM
IC50 [2, 3]: 393 nM
Structure (SMILES): O=C(c1ccccc1)N(CC1=CC(Cc2ccccc2)(NC(=O)C(Cl)(Cl)Cl)CC1)c1cccc(OCCN2CCOCC2)c1 (stereo not drawn) [Compound 10, 3-Benzyl-3-trichloroacetylamino-1-(N-phenylcarbonyl)-N-[(3-(2-morpholinoethoxy)phenyl)amino]methylcyclopentene]

IC50 ([1]; read-out: IC50 (unit inferred)): 1500 nM
Structure (SMILES): CN(C)CCSc1ccc(NCC2=CC(Cc3ccccc3)(NC(=O)C(Cl)(Cl)Cl)CC2)cc1 (stereo not drawn) [Compound 56]
inhibition at 2 µM ([2]; Oryctolagus cuniculus): 24%

IC50 ([1]; read-out: IC50): 37 nM
Structure (SMILES): O=C(Nc1cccc(F)c1)N(CC1=CC(Cc2ccccc2)(NC(=O)C(Cl)(Cl)Cl)CC1)c1cccc(OCCN2CCOCC2)c1 (stereo not drawn) [Compound 63]
inhibition at 1 µM ([2]; Oryctolagus cuniculus): 63.8%

inhibition at 0.05 µM ([1]; @ 0.05 μM): 64%
Structure (SMILES): O=C(c1ccc(Br)cc1)N(CC1=CC(Cc2ccccc2)(NC(=O)C(Cl)(Cl)Cl)CC1)c1cccc(OCCN2CCOCC2)c1 (stereo not drawn) [Compound 61]
inhibition at 1 µM ([2]; Oryctolagus cuniculus): 63%

inhibition at 0.1 µM [1]: 70%
Structure (SMILES): O=C(Nc1ccccc1)N(CC1=CC(Cc2cccc(Cl)c2)(NC(=O)C(Cl)(Cl)Cl)CC1)c1cccc(OCCN2CCOCC2)c1 (stereo not drawn) [Compound 68]
inhibition at 1 µM ([2]; Oryctolagus cuniculus): 51%

IC50 ([1]; read-out: IC50 (unit inferred)): 300 nM
IC50 [2, 3]: 3930 nM
Structure (SMILES): CCN(CC)CCN(CC1=CC(Cc2ccccc2)(NC(=O)C(Cl)(Cl)Cl)CC1)c1cccc(OCCN2CCOCC2)c1 (stereo not drawn) [Compound 53]

inhibition at 0.1 µM [1]: 78%
Structure (SMILES): O=C(c1ccc(F)c(F)c1)N(CC1=CC(Cc2cccc(Cl)c2)(NC(=O)C(Cl)(Cl)Cl)CC1)c1cccc(OCCN2CCOCC2)c1 (stereo not drawn) [Compound 130]

inhibition at 10 µM [1]: 32%
Structure (SMILES): COc1ccc(NCC2=CC(Cc3ccccc3)(NC(=O)C(Cl)(Cl)Cl)CC2)cc1O (stereo not drawn) [Compound 87]

inhibition at 1 µM [1]: 65%
Structure (SMILES): O=C(c1sccc1Br)N(CC1=CC(Cc2ccccc2)(NC(=O)C(Cl)(Cl)Cl)CC1)c1cccc(OCCN2CCOCC2)c1 (stereo not drawn) [Compound 115]

inhibition at 10 µM [1]: 85%
Structure (SMILES): CCN(CC)CCN(CC1=CC(Cc2ccccc2)(NC(=O)C(Cl)(Cl)Cl)CC1)c1ccc(OCCN(C)C)cc1 (stereo not drawn) [Compound 71]

IC50 ([1]; read-out: IC50 (unit inferred)): 800 nM
Structure (SMILES): CCN(CC)CCOc1cccc(CN(CC2=CC(Cc3ccccc3)(NC(=O)C(Cl)(Cl)Cl)CC2)C2CCN(Cc3ccccc3)CC2)c1 (stereo not drawn) [Compound 77]

inhibition at 1 µM [1]: 40%
Structure (SMILES): CC(=O)NC1(Cc2ccccc2)C=C(CN(C(=O)Nc2ccccc2)c2cccc(OCCN3CCOCC3)c2)CC1 (stereo not drawn) [Compound 15, 3-Benzyl-3-acetylamino-1-(N-phenylaminocarbonyl)-N-[(3-(2-morpholinoethoxy)phenyl)amino]methylcyclopentene]

inhibition at 10 µM [1]: 74%
Structure (SMILES): COc1ccc(N(CC2=CC(Cc3ccccc3)(NC(=O)C(Cl)(Cl)Cl)CC2)C(=O)c2ccccc2)cc1OCCN1CCOCC1 (stereo not drawn) [Compound 34]

inhibition at 1 µM [1]: 51%
Structure (SMILES): CC(=O)NC1(Cc2ccccc2)C=C(CN(C(=O)c2ccc(F)cc2)c2cccc(OCCN3CCOCC3)c2)CC1 (stereo not drawn) [Compound 133]

inhibition at 0.1 µM [1]: 40%
Structure (SMILES): O=C(c1cccc2ccccc12)N(CC1=CC(Cc2ccccc2)(NC(=O)C(Cl)(Cl)Cl)CC1)c1cccc(OCCN2CCOCC2)c1 (stereo not drawn) [Compound 124]

inhibition at 1 µM [1]: 59%
Structure (SMILES): O=C(c1ccc(Br)cc1)N(CC1=CC(Cc2ccccc2)(NC(=O)C(Cl)(Cl)Cl)CC1)c1cc(OCCN2CCOCC2)ccc1Cl (stereo not drawn) [Compound 38]
